From ChEMBL document CHEMBL5247647, “Phenothiazine-Based LSD1 Inhibitor Promotes T-Cell Killing Response of Gastric Cancer Cells” (J Med Chem, 2023)
Active and inactive are the calls of the source. The calls are words filed in the database; no cut-off is given here.

Experiments:
[1] = biological target: Programmed cell death protein 1/Programmed cell death 1 ligand 1 (Homo sapiens) (UniProt Q15116+Q9NZQ7); experiment: Inhibition of PD-L1/PD-1 interaction in human BGC-823 cells assessed as decrease in binding of PD-1 to cell membrane at 5 to 20 uM incubated for 5 days followed by recombinant PD-1-Fc protein addition by confocal microscopy analysis; format: cell-based; details: dose 5-20 µM, time 5.0 day
[2] = Toxicity against 615 mouse xenografted with mouse MFC cells in assessed as pathological changes in heart at 10 to 50 mg/kg, po for 14 days by Hematoxylin and Eosin staining based microscopic analysis; format: organism-based; details: in vivo, 336 h, dose 10-50 mg/kg, time 14 day
MAO-A = biological target: T1, MAO-A (Homo sapiens, UniProt P21397); experiment: Inhibition of recombinant human MAO-A at 10 uM
T1 sequence (P21397 whole entry): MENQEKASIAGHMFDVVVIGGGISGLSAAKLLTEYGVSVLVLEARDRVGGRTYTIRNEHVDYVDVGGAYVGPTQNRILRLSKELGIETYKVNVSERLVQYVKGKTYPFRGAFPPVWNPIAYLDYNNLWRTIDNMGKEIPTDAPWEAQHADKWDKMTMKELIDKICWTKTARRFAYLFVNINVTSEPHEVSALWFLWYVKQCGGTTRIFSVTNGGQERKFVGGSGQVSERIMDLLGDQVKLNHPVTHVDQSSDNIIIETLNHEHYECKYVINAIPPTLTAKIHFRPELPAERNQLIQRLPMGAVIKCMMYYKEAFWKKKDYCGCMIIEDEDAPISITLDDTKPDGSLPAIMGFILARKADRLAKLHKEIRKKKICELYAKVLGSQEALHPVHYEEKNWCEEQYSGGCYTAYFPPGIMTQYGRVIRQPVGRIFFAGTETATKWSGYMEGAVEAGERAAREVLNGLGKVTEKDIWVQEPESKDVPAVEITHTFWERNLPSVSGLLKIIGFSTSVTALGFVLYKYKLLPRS

MFC [3] = experiment: Antitumor activity against mouse MFC cells xenografted in 615 mouse assessed as increase in IFNgamma expression level in tumor at 10 to 50 mg/kg, po for 14 days by ELISA; format: functional, organism-based; details: dose 10-50 mg/kg, time 14.0 day
BGC-823 [4] = experiment: Downregulation of PD-L1 expression in human LSD1 knockout BGC-823 cells transfected with […] K661A mutant plasmid at 20 uM incubated for 5 days by Western blot anlaysis; format: functional, cell-based; details: time 5.0 day
MFC [5] = experiment: Downregulation of PD-L1 expression in mouse LSD1 knockout MFC cells at 5 to 20 uM incubated for 5 days by Western blot anlaysis; format: functional, cell-based; details: dose 5-20 µM, time 5.0 day
BGC-823 [6] = experiment: Downregulation of PD-L1 expression in human BGC-823 cells at 5 to 20 uM incubated for 5 days by Western blot anlaysis; format: functional, cell-based; details: dose 5-20 µM, time 5.0 day
MFC [7] = experiment: Antitumor activity against mouse MFC cells xenografted in 615 mouse assessed as increase in IFNgamma mRNA expression level in tumor at 10 to 50 mg/kg, po for 14 days; format: functional, organism-based; details: dose 10-50 mg/kg, time 14.0 day
[8] = biological target: T2, Lysine-specific histone demethylase 1A (Homo sapiens, UniProt O60341); experiment: Inhibition of human LSD1 in human LSD1 knockout BGC-823 cells assessed as effect on H3K4me3 methylation at 5 to 20 uM incubated for 5 days by Western blot anlaysis; format: cell-based; details: dose 5-20 µM, time 5.0 day
MFC [9] = experiment: Downregulation of PD-L1 expression in mouse MFC cells at 5 to 20 uM incubated for 5 days by Western blot anlaysis; format: functional, cell-based; details: dose 5-20 µM, time 5.0 day
MFC [10] = experiment: Antitumor activity against mouse MFC cells xenografted in 615 mouse assessed as decrease in Ki67 expression in tumor at 10 to 50 mg/kg, po for 14 days by immunohistochemistry; format: functional, organism-based; details: dose 10-50 mg/kg, time 14.0 day
BGC-823 [11] = experiment: Downregulation of PD-L1 expression in human BGC-823 cell membrane at 5 to 20 uM incubated for 5 days by Western blot anlaysis; format: functional, cell membranes; details: dose 5-20 µM, time 5.0 day
[12] = Toxicity against 615 mouse xenografted with mouse MFC cells in assessed as pathological changes in lungs at 10 to 50 mg/kg, po for 14 days by Hematoxylin and Eosin staining based microscopic analysis; format: organism-based; details: in vivo, 336 h, dose 10-50 mg/kg, time 14 day
MFC [13] = experiment: Downregulation of PD-L1 expression in mouse MFC cell membrane at 5 to 20 uM incubated for 5 days by Western blot anlaysis; format: functional, cell membranes; details: dose 5-20 µM, time 5.0 day
MFC [14] = experiment: Antitumor activity against mouse MFC cells xenografted in 615 mouse assessed as increase in infiltration of CD4+ T cells into tumor at 10 to 50 mg/kg, po for 14 days by immunohistochemistry; format: functional, organism-based; details: dose 10-50 mg/kg, time 14.0 day
[15] = biological target: T2, Lysine-specific histone demethylase 1A; experiment: Inhibition of human LSD1 in human BGC-823 cells assessed as inhibition of H3K4me2 demethylation at 5 to 20 uM incubated for 5 days by Western blot anlaysis; format: cell-based; details: dose 5-20 µM, time 5.0 day
[16] = biological target: T2, Lysine-specific histone demethylase 1A; experiment: Inhibition of human LSD1 in human LSD1 knockout BGC-823 cells assessed as effect on H3K4me1 methylation at 5 to 20 uM incubated for 5 days by Western blot anlaysis; format: cell-based; details: dose 5-20 µM, time 5.0 day
BGC-823 [17] = experiment: Anticancer activity against human PD-L1 knockout BGC-823 cells assessed as increase in CD3/CD28 activated T-cell killing response at 5 to 20 uM incubated for 5 days by DAPI staining based assay; format: functional; details: dose 5-20 µM, time 5.0 day
[18] = Toxicity against 615 mouse xenografted with mouse MFC cells in assessed as pathological changes in spleen at 10 to 50 mg/kg, po for 14 days by Hematoxylin and Eosin staining based microscopic analysis; format: organism-based; details: in vivo, 336 h, dose 10-50 mg/kg, time 14 day
BGC-823 [19] = experiment: Anticancer activity against human LSD1 knockout BGC-823 cells assessed as increase in CD3/CD28 activated T-cell killing response at 5 to 20 uM incubated for 5 days by DAPI staining based assay; format: functional; details: dose 5-20 µM, time 5.0 day
[20] = biological target: T2, Lysine-specific histone demethylase 1A; experiment: Inhibition of recombinant LSD1 (unknown origin) expressed in Escherichia coli BL21 (DE3) using H3K4me2 peptide as substrate incubated for 30 mins by fluorescence based microplate reader assay
MFC [21] = experiment: Antitumor activity against mouse MFC cells xenografted in 615 mouse assessed as increase in infiltration of CD3+ T cells into tumor at 10 to 50 mg/kg, po for 14 days by immunohistochemistry; format: functional, organism-based; details: dose 10-50 mg/kg, time 14.0 day

- inhibition at 10 µM (MAO-A): < 10%
- inhibition [8]: inactive
- inhibition [15]: Active
- inhibition [16]: inactive
- IC50 [20]: 247 nM
SMILES: c1ccc2c(c1)Sc1ccccc1N2CCN1CCOCC1
- inhibition [1]: Dose-Dependent Effect
- Activity [2]: Non-Toxic
- Activity (MFC [3]): Active
- Activity (BGC-823 [4]): inactive
- Activity (MFC [5]): inactive
- Activity (BGC-823 [6]): Dose-Dependent Effect
- Activity (MFC [7]): Active
- Activity (MFC [9]): Dose-Dependent Effect
- Activity (MFC [10]): Active
- Activity (BGC-823 [11]): Dose-Dependent Effect
- Activity [12]: Non-Toxic
- Activity (MFC [13]): Dose-Dependent Effect
- Activity (MFC [14]): Active
- Activity (BGC-823 [17]): inactive
- Activity [18]: Non-Toxic
- Activity (BGC-823 [19]): inactive
- Activity (MFC [21]): Active
